Reference: patent US12036194B1, “Methods of administering solriamfetol to lactating women” (Axsome Malta Ltd., priority 2022, dated 2024)
Where a name gives a salt, the structure may show the parent alone. Read-outs that look alike come from different tables or passages of the source.

Key:
[1] = cited from earlier work
[2] = Phase 4 open-label single-dose study: pharmacokinetics of solriamfetol in breast milk of healthy postpartum women; assay type: in vivo, human; conditions: for Kp / AUC(0-inf) / AUC(0-t) / Cmax / half-life / Tmax: female, human, po, 150 mg; for Kp: breast milk / plasma
Protocol: A Phase 4, open-label, single-dose study to evaluate the pharmacokinetics (PK) of solriamfetol in the breast milk and plasma of healthy postpartum women following oral administration of a 150 mg solriamfetol tablet.
The study was conducted in 6 healthy adult lactating women who were between 15 and 37 weeks postpartum and were administered a single oral dose of SUNOSI 150 mg. SUNOSI was excreted in breast milk with a milk to plasma AUC ratio of approximately 2:1. […] The average amount that would be passed to the infant was estimated to be 0.59 mg over 24 hours, which is about 4.0% of the maternal dose on a weight-adjusted basis. The data from the lactation study indicate that SUNOSI is transferred to breastmilk in nursing mothers, with the relative infant dose (RID) is approximately 4% of the maternal weight-adjusted dosage. Data to assess the effects of SUNOSI on a breastfed infant or on milk production is not provided. The developmental and health benefits of breastfeeding should be considered along with the mother's clinical need for SUNOSI and any potential adverse effects on the breastfed child from SUNOSI or from the underlying maternal condition. Breastfed infants should be monitored for adverse reactions, such as agitation, insomnia, anorexia, and reduced weight gain.
On Day −1, eligible subjects underwent the baseline procedures. On Day 1, 2 hours after a light breakfast, subjects were to receive a single dose of solriamfetol 150 mg with 240 mL of water. Subjects had to fast for approximately 4 hours after the first dose; water was allowed except for 1 hour before and 1 hour after dosing with the study drug.
Pharmacokinetic analysis of breast milk obtained from both breasts (by pumping) was evaluated prior to dose administration and at intervals up to 72 hours postdose. Blood samples were also collected for plasma solriamfetol quantitation and PK analysis predose and at timepoints up to 72 hours postdose. Solriamfetol breast milk and plasma concentrations were measured using validated bioanalytical methods. Safety was assessed throughout the study by 12-lead ECG, vital sign measurements, the Columbia-Suicide Severity Rating Scale (C-SSRS), and the incidence of adverse events (AE).
Breast milk collection: Solriamfetol concentration in breast milk and plasma was evaluated based on samples collected prior to and postdose on Days 1 to 4. Breast milk was collected from both breasts, using electronic breast pumps, during the following intervals: From −2 to 0 at predose and at 0 to 2, 2 to 4, 4 to 8, 8 to 12, 12 to 18, 18 to 24, 24 to 32, 32 to 40, 40 to 48, and 48 to 72 hours postdose on Day 1. The midpoint of each breast milk collection interval was used as the time variable.
Breast milk was collected as often as needed during the assigned intervals; however, at the end of each interval, breast milk was pumped from both breasts and collected. At the end of each collection interval, all milk expressed from both breasts during that interval was pooled. The milk was thoroughly mixed by gently inverting the collection vessel 10 times to ensure homogeneity in milk composition. The weight and volume of the collected milk during each interval was also recorded.
Serial blood samples (4 mL) were collected and dispensed into labeled K2EDTA tubes. The actual time of blood collection for all samples was recorded on the eCRF. Solriamfetol concentration in breast milk and plasma were determined using a validated bioanalytical method (LC-MS/MS) at Origin Bioanalytical Laboratory. The analytical range (lower limit of quantitation [LLOQ] to upper limit of quantitation) for plasma solriamfetol was 8.42 to 4210.00 ng/mL, and breast milk solriamfetol was 10.0 to 8000 ng/mL.
Pharmacokinetic parameters were derived with Phoenix® WinNonlin® Version 8.3 (Certara, Inc., Princeton, New Jersey, USA) and/or SAS© Version 9.4 (SAS Institute, Inc., Cary, North Carolina, USA). […]

[3] = animals tested; cited from earlier work
[4] = breast milk, single oral 150 mg solriamfetol tablet, N = 6, hydrochloride
[5] = breast milk, single oral 150 mg, N = 6
[6] = breast milk, single oral 150 mg, N = 6, hydrochloride
[7] = breast milk, single oral 150 mg, N = 6, listed as solriamfetol, hydrochloride
[8] = over 72 hours, single oral 150 mg

NC(=O)OC[C@H](N)Cc1ccccc1 [Solriamfetol, (R)-2-amino-3-phenylpropyl carbamate (APC) hydrochloride]
PK in fed versus fasted subjects ([1]; fed versus fasted): satisfied the criteria for bioequivalence | systemic elimination half-life ([1]; in vivo): 5.0 to 7.6 h | estimated accumulation ratio ([1]; once daily dosing): 1.06 | Milk:Plasma Ratio, Arithmetic Mean (CV %) ([2]; AUC in breast milk divided by AUC in plasma, single oral 150 mg, N = 6): 2.136 (35.8) | time by which near complete excretion in breast milk was observed ([2]; after dosing, single oral 150 mg): ≤ 24 h | Amilk, Geometric Mean ([2]; amount excreted in breast milk over 72 hours, single oral 150 mg, N = 6): 0.5651 mg | Amilk, Arithmetic Mean (CV %) ([2]; amount excreted in breast milk over 72 hours, single oral 150 mg, N = 6, hydrochloride): 0.6880 (67.9) mg | Amilk, Arithmetic Mean (CV %) ([2]; amount excreted in breast milk over 72 hours, single oral 150 mg, N = 6, listed as solriamfetol, hydrochloride): 0.6880 mg | Lambda_z, Arithmetic Mean (CV %) ([2]; breast milk, single oral 150 mg solriamfetol tablet, N = 6): 0.1446 (18.8) 1/h | t1/2, Arithmetic Mean (CV %) [2, 4]: 4.954 (21.4) h | tmax, Median (min, max) [2, 4]: 1.12 h | Daily Infant Dose, Geometric Mean [2, 5]: 0.5856 mg | Relative Infant Dose, Geometric Mean [2, 5]: 4.030% | Daily Infant Dose, Arithmetic Mean (CV %) [2, 6]: 0.6927 (63.5) mg | Relative Infant Dose, Arithmetic Mean (CV %) [2, 6]: 4.602 (60.6) % | Daily Infant Dose, Arithmetic Mean (CV %) [2, 7]: 0.6927 mg | Relative Infant Dose, Arithmetic Mean (CV %) [2, 7]: 4.602% | average amount that would be passed to the infant ([2]; estimated, over 24 hours, single oral 150 mg): 0.59 mg | share of the total amount excreted in breast milk over 72 hours ([2]; excreted by 8 hours): approximately 78% | share of the total amount excreted in breast milk over 72 hours ([2]; excreted by 24 hours): ~98% | Kp ([2]; AUC in breast milk divided by AUC in plasma, single oral 150 mg, N = 6, read-out: Milk:Plasma Ratio, Geometric Mean): 2.05 | Kp ([2]; breast milk vs plasma, single oral 150 mg, read-out: solriamfetol exposure/concentrations (Cmax, AUCs) in breast milk relative to plasma): ~2 | AUC(0-inf) ([2]; breast milk, breast milk, single oral 150 mg solriamfetol tablet, N = 6, read-out: AUC0-inf, Geometric Mean): 12900 ng·h/mL | AUC(0-t) ([2]; breast milk, breast milk, single oral 150 mg solriamfetol tablet, N = 6, read-out: AUC0-t, Arithmetic Mean (CV %)): 13700 ng·h/mL | AUC(0-t) ([2]; breast milk, breast milk, single oral 150 mg solriamfetol tablet, N = 6, read-out: AUC0-t, Geometric Mean): 12800 ng·h/mL | Cmax ([2]; breast milk, breast milk, single oral 150 mg solriamfetol tablet, N = 6, read-out: Cmax, Arithmetic Mean (CV %)): 2070 ng/mL | Cmax ([2]; breast milk, breast milk, single oral 150 mg solriamfetol tablet, N = 6, read-out: Cmax, Geometric Mean): 1860 ng/mL | half-life ([2]; breast milk, breast milk, single oral 150 mg solriamfetol tablet, N = 6, read-out: t1/2, Arithmetic Mean (CV %) (converted)): ~5 h | half-life ([2]; breast milk, breast milk, single oral 150 mg solriamfetol tablet, N = 6, read-out: t1/2, Geometric Mean (converted)): 4.87 h | Tmax ([2]; breast milk, breast milk, single oral 150 mg solriamfetol tablet, N = 6, read-out: tmax, Median (min, max)): ~1.1 h | AUC(0-inf) ([2]; breast milk, breast milk, single oral 150 mg solriamfetol tablet, healthy postpartum women N = 6, read-out: AUC0-inf, Arithmetic Mean (CV %)): 13800 ng·h/mL | half-life ([2]; breast milk, breast milk, single oral 150 mg, read-out: t1/2 (approximate) (converted)): ~5 h | Tmax ([2]; breast milk, breast milk, single oral 150 mg, read-out: tmax range): 1 to 3 h | daily infant dose ([2]; further analysis, based on nominal infant weight of 6 kg, maternal single oral 150 mg): 0.112 mg/kg | Arithmetic mean±SD amount excreted in breast milk [2, 8]: 0.6880 ± 0.4672 mg | cumulative median amount excreted in breast milk [2, 8]: 0.67 mg | absorption and oral bioavailability [3]: rapid absorption and high oral bioavailability | exposure (maximum serum concentration and AUC) versus dose [3]: dose-proportional exposure
